Test results reported in article PMC12692861, “Biotin-Linked Ursolic Acid Conjugates as Selective Anticancer Agents and Target-Identification Tools for Cancer Therapy” (Molecules, 2025).

What was measured:
[1] = test system: ATP-binding cassette sub-family A; assay: Streptavidin pulldown proteomics (LC-MS/MS), 5637 cells; parameters: species or system human; details: 5637, 50 µM
Procedure: We used proteomics to identify potential molecular targets of 5c. A pulldown assay with streptavidin-agarose-coated magnetic beads was performed. Briefly, 5637 and MB49 cells were incubated with 50 µM 5c for 10 min and 1 h. After incubation, the cells were rinsed three times with cold phosphate-buffered saline (PBS), and cell lysates were prepared and clarified by centrifugation to remove cellular debris, including nuclei. The clarified lysates were incubated with streptavidin-coated magnetic beads to selectively bind biotinylated contents. Bound proteins were separated from unbound proteins through thorough bead washing. Proteins attached to the beads were eluted and analyzed on an Orbitrap Fusion Tribrid mass spectrometer (Thermo Scientific, New York, NY, USA) coupled with an Ultimate 3000 nano-UPLC system. Samples were trapped on a PepMap100 C18 trap column (5 µm, 0.3 × 5 mm) and separated on a PepMap RSLC C18 column (2 µm, 75 µm × 150 mm) using a gradient from 2 to 40% acetonitrile with 0.1% formic acid over 120 min at […] and 40 °C. […] Proteins were identified and quantified based on peptide spectral matches (PSMs), and fold enrichment compared to controls was calculated to evaluate interaction strength. […]

[2] = test system: Coiled-coil domain-containing protein; assay: as above; format: binding, human; details: 5637, 50 µM
Procedure: (§1) We used proteomics to identify potential molecular targets of 5c. A pulldown assay with streptavidin-agarose-coated magnetic beads was performed. Briefly, 5637 and MB49 cells were incubated with 50 µM 5c for 10 min and 1 h. After incubation, the cells were rinsed three times with cold phosphate-buffered saline (PBS), and cell lysates were prepared and clarified by centrifugation to remove cellular debris, including nuclei. The clarified lysates were incubated with streptavidin-coated magnetic beads to selectively bind biotinylated contents. Bound proteins were separated from unbound proteins through thorough bead washing. Proteins attached to the beads were eluted and analyzed on an Orbitrap Fusion Tribrid mass spectrometer (Thermo Scientific, New York, NY, USA) coupled with an Ultimate 3000 nano-UPLC system. Samples were trapped on a PepMap100 C18 trap column (5 µm, 0.3 × 5 mm) and separated on a PepMap RSLC C18 column (2 µm, 75 µm × 150 mm) using a gradient from 2 to 40% acetonitrile with 0.1% formic acid over 120 min at […] and 40 °C. MS data were acquired in positive mode using data-dependent acquisition (DDA), with precursor scans at 120,000 FWHM (400–2000 m/z), and MS/MS scans in top-speed mode (3 s cycle) using HCD fragmentation (NCE 32%). Proteins were identified and quantified based on peptide spectral matches (PSMs), and fold enrichment compared to controls was calculated to evaluate interaction strength.
(§2) The 5637 and MB49 cells were cultured and treated with higher concentrations of 5c (50 µM) for short period of times (10 min & 60 min) followed by whole cell lysis (WCL) preparation of both treated and untreated cells using modified RIPA buffer [NaCl (100mM), TrisCl (20mM, pH 7.4), EDTA (10 mM), TritonX-100 (0.5%), Glycerol (5%), Protease inhibitor cocktail (1x)] with gentle continuous rotation. The protein content of each WCL was estimated using Pierce™ BCA Protein Assay kit (Thermo-Scientific # 23225). The 100 µL of resuspended Dynabeads™ MyOne™ Streptavidin C1 (Invitrogen # 65001) were washed with PBST (PBS with 0.01% Tween™20) in a magnet stand as recommended in the manufacturer’s instructions. The washed beads were incubated with 200 µg of each WCL in separate tubes at room temperature for 2 h in a gentle end-over-end mixing. After incubation, beads were washed 3–5 times with PBST (0.01% Tween-20) on a magnetic stand and beads were decanted by after spinning and magnetization. The samples were stored at −80 °C till further analysis using LC-MS/MS by the Proteomics and Mass Spectrometry Core Laboratory of Augusta University.

DNA topoisomerase = assay: as above; format: binding, human; details: 5637, 50 µM
Procedure: as §1, §2

[3] = test system: Eukaryotic initiation factor 4A (eIF4A); assay: as above; format: binding, human; details: 5637, 50 µM
Procedure: as §1, §2

[4] = test system: Eukaryotic translation initiation factor 2 (eIF2); assay: as above; format: binding, human; details: 5637, 50 µM
Procedure: as §1, §2

ATP synthase subunit O = ATP synthase subunit O (Mus musculus, UniProt Q9DB20); assay: Streptavidin pulldown proteomics (LC-MS/MS), MB49 cells; format: binding, murine; details: MB-49, 50 µM
Chain of ATP synthase subunit O (Q9DB20 24-213): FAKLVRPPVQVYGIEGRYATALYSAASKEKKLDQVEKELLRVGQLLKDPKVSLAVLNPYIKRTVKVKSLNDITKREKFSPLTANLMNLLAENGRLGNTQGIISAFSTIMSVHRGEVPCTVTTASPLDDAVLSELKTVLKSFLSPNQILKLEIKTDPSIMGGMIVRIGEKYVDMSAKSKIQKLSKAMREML
Procedure: as §1, §2

[5] = target: ATP synthase subunit alpha (Mus musculus, UniProt Q03265); assay: as above; format: binding, murine; details: MB-49, 50 µM
Procedure: as §1, §2

[6] = target: Elongation factor 2 (eEF2) (Mus musculus, UniProt P58252); assay: as above; format: binding, murine; details: MB-49, 50 µM
Procedure: as §1, §2

[7] = test system: Eukaryotic initiation factor 4A (eIF4A); assay: as above; format: binding, murine; details: MB-49, 50 µM
Procedure: as §1, §2

[8] = test system: Eukaryotic translation initiation factor 2 (eIF2); assay: as above; format: binding, murine; details: MB-49, 50 µM
Procedure: as §1, §2

Filamin-A (FLNA) [9] = target: Filamin-A (FLNA) (Mus musculus, UniProt Q8BTM8); assay: as above; format: binding, murine; details: MB-49, 50 µM
Chain of Filamin-A (FLNA) (Mus musculus, UniProt Q8BTM8) (Q8BTM8 whole entry): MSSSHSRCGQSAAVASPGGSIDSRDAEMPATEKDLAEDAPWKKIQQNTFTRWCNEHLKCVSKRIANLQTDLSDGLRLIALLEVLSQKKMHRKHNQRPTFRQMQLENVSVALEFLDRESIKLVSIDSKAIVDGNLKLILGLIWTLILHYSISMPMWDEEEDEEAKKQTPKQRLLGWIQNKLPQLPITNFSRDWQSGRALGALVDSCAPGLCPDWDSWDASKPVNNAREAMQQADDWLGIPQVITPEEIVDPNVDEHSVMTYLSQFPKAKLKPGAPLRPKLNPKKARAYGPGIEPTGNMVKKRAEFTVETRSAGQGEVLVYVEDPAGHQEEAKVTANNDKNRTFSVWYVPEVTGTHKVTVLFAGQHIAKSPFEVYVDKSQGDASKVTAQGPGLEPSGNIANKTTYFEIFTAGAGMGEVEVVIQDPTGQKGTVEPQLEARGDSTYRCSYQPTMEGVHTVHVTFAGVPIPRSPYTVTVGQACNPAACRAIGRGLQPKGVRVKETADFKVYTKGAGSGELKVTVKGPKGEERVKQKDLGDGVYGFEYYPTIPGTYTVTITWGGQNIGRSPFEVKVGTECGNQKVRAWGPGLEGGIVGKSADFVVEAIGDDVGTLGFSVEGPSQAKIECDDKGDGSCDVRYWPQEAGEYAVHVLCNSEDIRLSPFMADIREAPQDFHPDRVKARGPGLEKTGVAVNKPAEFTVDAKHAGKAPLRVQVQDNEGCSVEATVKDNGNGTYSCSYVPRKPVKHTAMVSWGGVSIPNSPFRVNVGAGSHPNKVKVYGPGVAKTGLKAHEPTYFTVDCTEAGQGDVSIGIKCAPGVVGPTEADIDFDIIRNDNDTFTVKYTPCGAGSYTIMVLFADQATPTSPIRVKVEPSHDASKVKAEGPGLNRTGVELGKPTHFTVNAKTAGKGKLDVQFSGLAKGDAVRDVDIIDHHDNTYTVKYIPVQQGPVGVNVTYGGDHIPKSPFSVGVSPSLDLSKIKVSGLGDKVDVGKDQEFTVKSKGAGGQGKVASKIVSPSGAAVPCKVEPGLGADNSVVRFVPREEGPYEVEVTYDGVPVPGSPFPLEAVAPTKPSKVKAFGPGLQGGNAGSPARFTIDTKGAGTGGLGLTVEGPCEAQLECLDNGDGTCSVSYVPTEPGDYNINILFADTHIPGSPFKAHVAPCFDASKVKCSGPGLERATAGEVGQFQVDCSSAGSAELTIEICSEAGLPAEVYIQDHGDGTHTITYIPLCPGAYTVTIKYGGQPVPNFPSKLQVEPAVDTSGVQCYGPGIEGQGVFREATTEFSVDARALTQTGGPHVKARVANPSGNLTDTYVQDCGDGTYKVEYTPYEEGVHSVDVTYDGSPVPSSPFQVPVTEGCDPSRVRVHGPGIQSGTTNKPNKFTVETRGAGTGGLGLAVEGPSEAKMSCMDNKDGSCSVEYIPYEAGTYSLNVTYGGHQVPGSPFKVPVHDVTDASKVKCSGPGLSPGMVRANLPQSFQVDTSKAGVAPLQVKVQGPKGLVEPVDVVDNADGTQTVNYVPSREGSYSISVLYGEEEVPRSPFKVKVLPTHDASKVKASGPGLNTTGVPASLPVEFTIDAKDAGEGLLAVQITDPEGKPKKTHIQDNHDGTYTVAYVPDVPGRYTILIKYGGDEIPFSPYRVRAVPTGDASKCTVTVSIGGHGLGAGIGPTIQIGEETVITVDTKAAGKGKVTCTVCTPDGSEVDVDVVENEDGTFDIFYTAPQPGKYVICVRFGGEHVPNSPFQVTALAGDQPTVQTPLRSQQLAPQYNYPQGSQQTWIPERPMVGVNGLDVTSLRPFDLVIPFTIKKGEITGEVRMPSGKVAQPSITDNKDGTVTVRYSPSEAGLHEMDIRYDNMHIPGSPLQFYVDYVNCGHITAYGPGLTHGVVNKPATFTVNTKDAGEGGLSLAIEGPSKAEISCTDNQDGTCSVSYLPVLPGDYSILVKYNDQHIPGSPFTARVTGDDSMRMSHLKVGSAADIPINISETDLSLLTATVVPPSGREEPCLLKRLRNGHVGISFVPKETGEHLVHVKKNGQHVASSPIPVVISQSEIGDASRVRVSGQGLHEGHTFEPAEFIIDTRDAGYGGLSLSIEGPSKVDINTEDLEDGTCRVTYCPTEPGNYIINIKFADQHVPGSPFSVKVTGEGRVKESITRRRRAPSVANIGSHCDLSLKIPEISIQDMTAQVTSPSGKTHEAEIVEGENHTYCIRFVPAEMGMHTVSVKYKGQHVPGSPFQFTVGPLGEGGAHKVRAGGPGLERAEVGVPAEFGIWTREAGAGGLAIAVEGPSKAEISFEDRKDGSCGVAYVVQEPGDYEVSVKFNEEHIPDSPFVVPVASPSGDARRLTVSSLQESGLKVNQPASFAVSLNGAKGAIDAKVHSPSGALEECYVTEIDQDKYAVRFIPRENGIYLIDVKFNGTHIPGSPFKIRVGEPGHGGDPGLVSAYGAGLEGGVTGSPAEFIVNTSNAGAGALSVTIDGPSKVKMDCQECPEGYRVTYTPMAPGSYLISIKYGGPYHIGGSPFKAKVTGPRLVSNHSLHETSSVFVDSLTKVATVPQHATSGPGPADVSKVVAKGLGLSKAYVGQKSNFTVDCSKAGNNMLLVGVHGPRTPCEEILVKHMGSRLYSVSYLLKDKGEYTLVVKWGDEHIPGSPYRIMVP
Procedure: as §1, §2

[10] = target: Receptor of activated protein C kinase 1 (RACK1) (Mus musculus, UniProt P68040); assay: as above; format: binding, murine; details: MB-49, 50 µM
Procedure: as §1, §2

[11] = target: ATP synthase subunit beta (Homo sapiens, UniProt P06576); assay: Streptavidin pulldown proteomics (LC-MS/MS), 5637 cells; format: binding; details: 5637, 50 µM
Procedure: as §1, §2

Filamin-A (FLNA) [12] = target: Filamin-A (FLNA) (Homo sapiens, UniProt P21333); assay: as above; format: binding; details: 5637, 50 µM
Procedure: as §1, §2

HSC 71 = HSC 71 (Homo sapiens, UniProt P11142); assay: as above; format: binding; details: 5637, 50 µM
Chain of HSC 71 (P11142 whole entry): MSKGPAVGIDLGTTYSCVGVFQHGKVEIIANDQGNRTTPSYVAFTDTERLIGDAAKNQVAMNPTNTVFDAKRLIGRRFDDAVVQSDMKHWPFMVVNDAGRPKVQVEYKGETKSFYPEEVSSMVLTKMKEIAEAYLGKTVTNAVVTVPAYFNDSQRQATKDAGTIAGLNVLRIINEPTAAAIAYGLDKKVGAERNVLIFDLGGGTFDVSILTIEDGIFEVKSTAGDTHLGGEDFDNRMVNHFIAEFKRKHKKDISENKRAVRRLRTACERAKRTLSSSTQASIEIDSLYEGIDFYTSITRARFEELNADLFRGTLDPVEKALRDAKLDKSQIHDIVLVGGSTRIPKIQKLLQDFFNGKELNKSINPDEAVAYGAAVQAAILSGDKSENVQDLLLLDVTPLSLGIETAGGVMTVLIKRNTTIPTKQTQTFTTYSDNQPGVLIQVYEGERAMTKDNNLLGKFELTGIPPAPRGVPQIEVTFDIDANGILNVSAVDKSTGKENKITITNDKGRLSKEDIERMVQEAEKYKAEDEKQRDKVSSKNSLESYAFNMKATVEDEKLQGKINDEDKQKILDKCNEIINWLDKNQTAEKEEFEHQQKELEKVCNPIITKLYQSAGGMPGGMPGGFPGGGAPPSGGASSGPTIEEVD
Procedure: as §1, §2

Histone H2A.Z = Histone H2A.Z (Homo sapiens, UniProt P0C0S5); assay: as above; format: binding; details: 5637, 50 µM
Chain of Histone H2A.Z (P0C0S5 whole entry): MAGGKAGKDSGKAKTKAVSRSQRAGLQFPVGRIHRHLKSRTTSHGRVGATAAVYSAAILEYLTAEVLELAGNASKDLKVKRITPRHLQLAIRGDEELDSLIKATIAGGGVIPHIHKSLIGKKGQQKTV
Procedure: as §1, §2

[13] = target: Splicing factor U2AF 65 kDa subunit (U2AF65) (Homo sapiens, UniProt P26368); assay: as above; format: binding; details: 5637, 50 µM
Chain of Splicing factor U2AF 65 kDa subunit (U2AF65) (P26368 whole entry, one chain of several): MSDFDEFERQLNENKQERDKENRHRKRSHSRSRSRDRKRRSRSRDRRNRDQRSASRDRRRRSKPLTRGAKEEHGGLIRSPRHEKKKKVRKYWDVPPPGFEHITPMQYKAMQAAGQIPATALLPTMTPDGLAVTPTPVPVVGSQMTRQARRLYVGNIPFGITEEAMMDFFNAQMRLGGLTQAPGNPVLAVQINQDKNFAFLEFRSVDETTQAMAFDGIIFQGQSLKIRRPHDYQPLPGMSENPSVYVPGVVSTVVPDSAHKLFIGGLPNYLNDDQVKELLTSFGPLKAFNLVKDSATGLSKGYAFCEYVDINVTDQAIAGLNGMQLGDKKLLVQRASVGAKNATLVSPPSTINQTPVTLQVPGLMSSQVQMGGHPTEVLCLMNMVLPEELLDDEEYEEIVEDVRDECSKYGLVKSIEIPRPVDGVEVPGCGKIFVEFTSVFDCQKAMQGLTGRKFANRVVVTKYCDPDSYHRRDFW
Procedure: as §1, §2

[14] = target: Poly(U)-binding-splicing factor 60 (PUF60) (Homo sapiens, UniProt Q9UHX1); assay: as above; details: 5637, 50 µM
Procedure: as §1, §2

[15] = target: RNA-binding protein 39 (RBM39) (Homo sapiens, UniProt Q14498); assay: as above; details: 5637, 50 µM
Procedure: as §1, §2

[16] = test system: ATP-binding cassette sub-family A; assay: Streptavidin pulldown proteomics (LC-MS/MS), MB49 cells; parameters: species or system murine; details: MB-49, 50 µM
Procedure: as §1, §2

[17] = target: Poly(U)-binding-splicing factor 60 (PUF60) (Mus musculus, UniProt Q3UEB3); assay: as above; parameters: species or system murine; details: MB-49, 50 µM
Chain of Poly(U)-binding-splicing factor 60 (PUF60) (Mus musculus, UniProt Q3UEB3) (Q3UEB3 whole entry): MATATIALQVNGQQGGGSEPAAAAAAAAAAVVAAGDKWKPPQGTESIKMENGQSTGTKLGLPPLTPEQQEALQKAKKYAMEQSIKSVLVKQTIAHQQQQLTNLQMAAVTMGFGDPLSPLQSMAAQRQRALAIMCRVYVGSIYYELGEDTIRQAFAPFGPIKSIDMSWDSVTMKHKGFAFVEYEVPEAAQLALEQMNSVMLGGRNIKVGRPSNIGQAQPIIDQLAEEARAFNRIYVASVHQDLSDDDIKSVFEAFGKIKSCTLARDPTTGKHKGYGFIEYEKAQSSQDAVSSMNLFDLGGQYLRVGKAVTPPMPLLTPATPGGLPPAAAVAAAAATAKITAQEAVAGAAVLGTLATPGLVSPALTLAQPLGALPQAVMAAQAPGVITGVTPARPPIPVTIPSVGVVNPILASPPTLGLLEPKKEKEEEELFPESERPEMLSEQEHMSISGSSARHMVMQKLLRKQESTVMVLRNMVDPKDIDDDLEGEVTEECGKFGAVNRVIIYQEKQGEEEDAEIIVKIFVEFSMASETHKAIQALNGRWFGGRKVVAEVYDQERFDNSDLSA
Procedure: as §1, §2

[18] = test system: RNA-binding protein 39 (RBM39); assay: as above; parameters: species or system murine; details: MB-49, 50 µM
Procedure: as §1, §2

With `CC1CCC2(C(=O)OCCCCOC(=O)CCCCC3SCC4NC(=O)NC43)CCC3(C)C(=CCC4C5(C)CCC(O)C(C)(C)C5CCC43C)C2C1C` [Compound 5c, 4-((5-((3aS,4S,6aR)-2-Oxohexahydro-1H-thieno [3,4-d]imidazol-4-yl)pentanoyl)oxy) butyl 3-hydroxy-urs-12-en-28-oate] the “Fold Change 10 min/Ctrl” value [1] was 3, the “Fold Change 1 h/Ctrl” value [1] was 5 and the “Fold Change 10 min/Ctrl” value [2] was 0. The “Fold Change 1 h/Ctrl” value [2] was 2, the “Fold Change 10 min/Ctrl” value (DNA topoisomerase) was 0.08 and the “Fold Change 1 h/Ctrl” value (DNA topoisomerase) was 0.11. The “Fold Change 10 min/Ctrl” value [3] was 22, the “Fold Change 1 h/Ctrl” value [3] was 19 and the “Fold Change 10 min/Ctrl” value [4] was 14. For the same compound, the “Fold Change 1 h/Ctrl” value [4] was 7, the “Fold Change 10 min/Ctrl” value (ATP synthase subunit O) was 4 and the “Fold Change 1 h/Ctrl” value (ATP synthase subunit O) was 5. The “Fold Change 10 min/Ctrl” value [5] was 1.26, the “Fold Change 1 h/Ctrl” value [5] was 1.26 and the “Fold Change 10 min/Ctrl” value [6] was 3. The “Fold Change 1 h/Ctrl” value [6] was 2, the “Fold Change 10 min/Ctrl” value [7] was 1 and the “Fold Change 1 h/Ctrl” value [7] was 3. For the same compound, the “Fold Change 10 min/Ctrl” value [8] was 2, the “Fold Change 1 h/Ctrl” value [8] was 0 and the “Fold Change 10 min/Ctrl” value (Filamin-A (FLNA) [9]) was 3.33. The “Fold Change 1 h/Ctrl” value (Filamin-A (FLNA) [9]) was 4, the “Fold Change 10 min/Ctrl” value [10] was 0.88 and the “Fold Change 1 h/Ctrl” value [10] was 1.29. For the same compound, the “Fold Change 10 min/Ctrl” value [11] was 3.29, the “Fold Change 1 h/Ctrl” value [11] was 5 and the “Fold Change 10 min/Ctrl” value (Filamin-A (FLNA) [12]) was 16. The “Fold Change 1 h/Ctrl” value (Filamin-A (FLNA) [12]) was 18, the “Fold Change 10 min/Ctrl” value (HSC 71) was 5.25 and the “Fold Change 1 h/Ctrl” value (HSC 71) was 6.25. For the same compound, the “Fold Change 10 min/Ctrl” value (Histone H2A.Z) was 5.85, the “Fold Change 1 h/Ctrl” value (Histone H2A.Z) was 4.78 and the “Fold Change 10 min/Ctrl” value [13] was 14. The “Fold Change 1 h/Ctrl” value [13] was 10, the “Fold Change 10 min/Ctrl” value [14] was 6 and the “Fold Change 1 h/Ctrl” value [14] was 5. The “Fold Change 10 min/Ctrl” value [15] was 3.5, the “Fold Change 1 h/Ctrl” value [15] was 3 and the “Fold Change 10 min/Ctrl” value [16] was 1. The “Fold Change 1 h/Ctrl” value [16] was 2, the “Fold Change 10 min/Ctrl” value [17] was 2.33 and the “Fold Change 1 h/Ctrl” value [17] was 3.33. For the same compound, the “Fold Change 10 min/Ctrl” value [18] was 2 and the “Fold Change 1 h/Ctrl” value [18] was 1.71.
